The results in this text go back to PubChem BioAssay AID624129 (Sanford-Burnham Center for Chemical Genomics, 2012).

What all share (experiment): CXCR6 receptor antagonists, dose response, cell-based, beta-arrestin, DiscoveRx, APJ panel, uHTS hits (AID 624129)
Test [1] addresses C-C chemokine receptor type 6 (Homo sapiens) (UniProt P51684). The settings on record: CXCR6 beta-arrestin (DiscoveRx) antagonist cell assay.
In test [2] the target is Apelin receptor (Homo sapiens) (UniProt P35414). The conditions noted are these: CXCR6 beta-arrestin (DiscoveRx) antagonist cell assay, APJ.
The target in test [3] is C-X-C chemokine receptor type 6 (Homo sapiens) (UniProt O00574). The conditions noted are these: CXCR6 beta-arrestin (DiscoveRx) antagonist cell assay; for inhibition: CXCR6, run 1, dose range 2, at 80 µM (top of the series).
C-X-C chemokine receptor type 6 (Homo sapiens), sequence (O00574 whole entry, looked up): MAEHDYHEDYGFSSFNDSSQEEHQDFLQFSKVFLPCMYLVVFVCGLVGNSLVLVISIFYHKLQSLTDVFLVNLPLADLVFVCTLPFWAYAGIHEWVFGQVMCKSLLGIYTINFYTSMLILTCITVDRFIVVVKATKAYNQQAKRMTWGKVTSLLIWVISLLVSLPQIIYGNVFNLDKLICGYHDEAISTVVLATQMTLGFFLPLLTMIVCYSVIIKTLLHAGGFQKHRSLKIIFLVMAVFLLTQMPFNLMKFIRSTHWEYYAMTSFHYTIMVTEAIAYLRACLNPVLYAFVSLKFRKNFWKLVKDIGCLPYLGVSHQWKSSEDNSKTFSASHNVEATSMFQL
In test [4] the target is Beta-galactosidase (Escherichia coli) (UniProt Q8VNN2). The conditions noted are these: CXCR6 beta-arrestin (DiscoveRx) antagonist cell assay, b-galactosidase.
Beta-galactosidase (Escherichia coli), sequence (Q8VNN2 whole entry, looked up): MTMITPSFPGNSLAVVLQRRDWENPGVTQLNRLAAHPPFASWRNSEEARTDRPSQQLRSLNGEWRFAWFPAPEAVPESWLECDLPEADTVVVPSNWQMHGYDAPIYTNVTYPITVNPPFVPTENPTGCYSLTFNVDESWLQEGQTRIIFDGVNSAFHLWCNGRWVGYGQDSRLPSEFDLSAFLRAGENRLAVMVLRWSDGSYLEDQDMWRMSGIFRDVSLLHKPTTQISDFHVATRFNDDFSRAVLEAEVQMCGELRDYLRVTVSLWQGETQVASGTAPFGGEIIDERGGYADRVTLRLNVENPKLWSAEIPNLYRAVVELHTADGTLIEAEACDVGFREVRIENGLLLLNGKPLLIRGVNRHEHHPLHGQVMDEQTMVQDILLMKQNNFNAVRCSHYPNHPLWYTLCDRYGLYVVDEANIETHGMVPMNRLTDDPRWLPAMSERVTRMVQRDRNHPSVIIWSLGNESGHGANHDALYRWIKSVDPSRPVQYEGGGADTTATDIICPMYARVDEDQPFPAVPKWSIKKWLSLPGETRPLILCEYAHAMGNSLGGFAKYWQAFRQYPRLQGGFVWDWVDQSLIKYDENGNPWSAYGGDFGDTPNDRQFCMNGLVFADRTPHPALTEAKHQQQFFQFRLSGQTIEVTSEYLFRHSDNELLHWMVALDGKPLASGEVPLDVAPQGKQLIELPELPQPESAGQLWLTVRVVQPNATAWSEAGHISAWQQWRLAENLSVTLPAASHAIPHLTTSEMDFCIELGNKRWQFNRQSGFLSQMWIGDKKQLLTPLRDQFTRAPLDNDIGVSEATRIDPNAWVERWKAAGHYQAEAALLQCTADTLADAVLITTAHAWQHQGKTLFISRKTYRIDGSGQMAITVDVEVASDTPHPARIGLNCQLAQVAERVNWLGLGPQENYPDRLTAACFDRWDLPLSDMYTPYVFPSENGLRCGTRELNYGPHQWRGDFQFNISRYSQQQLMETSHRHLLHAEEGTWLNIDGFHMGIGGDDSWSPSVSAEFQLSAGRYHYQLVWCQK
[5] abbreviates: CCR6, dose range 1, mean IC50 across replicates.
Where [6] appears, read: dose range 1, mean IC50 across replicates.
[7] abbreviates: CXCR6, dose range 1, mean IC50 across replicates.

The source made the active and inactive calls. How the calls were made is not given here.

With `CC(C)(C)c1ccc(CN2N=Nc3ccccc3S2(=O)=O)cc1`, the IC50 was 11.2 µM in test [1] (CCR6, dose range 1); 17.2 µM in test [1] (setting [5]); 23.1 µM in test [1] (CCR6, run 2, dose range 1); 13.3 µM in test [2] (dose range 1); 25.6 µM in test [2] (setting [6]); 27.9 µM in test [2] (run 2, dose range 1). Also, the IC50 is 35.5 µM in test [2] (run 3, dose range 1); 16.3 µM in test [3] (setting [7]); 20 µM in test [3] (CXCR6, run 2, dose range 1); > 80 µM (inactive) in test [4] (dose range 1); above 80 µM in test [4] (setting [6]). For the same compound, in test [3] (CXCR6, dose range 1), the IC50 result is “inactive”. Also, the inhibition in test [3] amounted to 142%.

As for `O=C(Nc1nc2c(F)cc(F)cc2s1)c1ccccn1`, the IC50 in test [1] (CCR6, dose range 1) was 0.66 µM; in test [1] (setting [5]) it was 1.03 µM; in test [1] (CCR6, run 2, dose range 1), 1.4 µM; in test [2] (dose range 1) it was 0.798 µM; in test [2] (setting [6]), 1.59 µM; in test [2] (run 2, dose range 1), 2.38 µM. Moreover, the IC50 in test [2] (run 3, dose range 1) is above 80 µM; in test [3] (CXCR6, dose range 1), 1.4 µM; in test [3] (setting [7]), 1.11 µM; in test [3] (CXCR6, run 1, dose range 2), 0.803 µM; in test [3] (CXCR6, run 2, dose range 1) it was 1.23 µM; in test [3] (CXCR6, run 2, dose range 2), 1 µM. Moreover, the IC50 is > 80 µM (inactive) in test [4] (dose range 1) and above 80 µM in test [4] (setting [6]).

As to `COc1ccc(C(=O)/C=C/C(=O)N(CC(=O)NC2CCCCC2)Cc2cccs2)c(O)c1`, the IC50 in test [1] (setting [5]) was above 80 µM; in test [1] (CCR6, run 2, dose range 1), above 80 µM; in test [2] (setting [6]), above 80 µM; in test [2] (run 2, dose range 1) it was above 80 µM; in test [2] (run 3, dose range 1), above 80 µM; in test [3] (CXCR6, dose range 1), > 80 µM (inactive). The IC50 in test [3] (setting [7]) was above 80 µM; in test [3] (CXCR6, run 2, dose range 1) it was above 80 µM; in test [4] (dose range 1) it was > 80 µM (inactive); in test [4] (setting [6]) it was above 80 µM. Moreover, the inhibition in test [3] was -73%.

As for `COc1ccc(Nc2ccc([N+](=O)[O-])c3nonc23)c(OC)c1`, the IC50 in test [1] (setting [5]) was above 80 µM; in test [1] (CCR6, run 2, dose range 1), above 80 µM; in test [2] (setting [6]), above 80 µM; in test [2] (run 2, dose range 1), above 80 µM; in test [2] (run 3, dose range 1), above 80 µM; in test [3] (CXCR6, dose range 1), > 80 µM (inactive). The IC50 in test [3] (setting [7]) was above 80 µM; in test [3] (CXCR6, run 2, dose range 1) it was above 80 µM; in test [4] (dose range 1) it was > 80 µM (inactive); in test [4] (setting [6]) it was above 80 µM. Also, the inhibition in test [3] was 4.14%.

Regarding `CCOC(=O)c1c(SCCN2CCCCC2)n(-c2ccccc2)c(=S)n(-c2ccccc2)c1=O`, the IC50 is 4.56 µM in test [1] (CCR6, dose range 1); 5.9 µM in test [1] (setting [5]); 7.23 µM in test [1] (CCR6, run 2, dose range 1); 5.99 µM in test [2] (dose range 1); 6.77 µM in test [2] (setting [6]); 7.04 µM in test [2] (run 2, dose range 1). In addition, the IC50 was 7.28 µM in test [2] (run 3, dose range 1); 11.1 µM in test [3] (CXCR6, dose range 1); 8.58 µM in test [3] (setting [7]); 6.03 µM in test [3] (CXCR6, run 2, dose range 1); > 80 µM (inactive) in test [4] (dose range 1); above 80 µM in test [4] (setting [6]). Further, the inhibition in test [3] amounted to 130%.

On to `C/C(=N\NC(=O)c1cc(-c2cccs2)nc2ccccc12)c1ccccn1`, for which the IC50 was 2.42 µM in test [1] (CCR6, dose range 1); 3.22 µM in test [1] (setting [5]); 4.01 µM in test [1] (CCR6, run 2, dose range 1); 2.79 µM in test [2] (dose range 1); 7.52 µM in test [2] (setting [6]); 15.3 µM in test [2] (run 2, dose range 1). Besides, the IC50 is 4.43 µM in test [2] (run 3, dose range 1); 4.85 µM in test [3] (CXCR6, dose range 1); 4.74 µM in test [3] (setting [7]); 2.69 µM in test [3] (CXCR6, run 1, dose range 2); 6.67 µM in test [3] (CXCR6, run 2, dose range 1); above 79 µM in test [3] (CXCR6, run 2, dose range 2). Besides, the IC50 is > 80 µM (inactive) in test [4] (dose range 1) and above 80 µM in test [4] (setting [6]).

As to `COc1cc(C(=O)NC2CC3CCCC(C2)N3CC(=O)Nc2ccccc2)cc(OC)c1OC` (configuration not stated), the IC50 was > 80 µM (inactive) in test [1] (CCR6, dose range 1); above 80 µM in test [1] (setting [5]); above 80 µM in test [1] (CCR6, run 2, dose range 1); > 80 µM (inactive) in test [2] (dose range 1); above 80 µM in test [2] (setting [6]); above 80 µM in test [2] (run 2, dose range 1). The IC50 in test [2] (run 3, dose range 1) was above 80 µM; in test [3] (CXCR6, dose range 1), 13.5 µM; in test [3] (setting [7]), 10.7 µM; in test [3] (CXCR6, run 1, dose range 2), 12.3 µM; in test [3] (CXCR6, run 2, dose range 1), 10.7 µM; in test [3] (CXCR6, run 2, dose range 2), 6.07 µM. Besides, the IC50 in test [4] (dose range 1) was > 80 µM (inactive); in test [4] (setting [6]), above 80 µM.

For the compound `C=C1C(=O)OC2C1CCC(C)=C1C(=O)C3OC3(C)C12` (configuration not stated), the IC50 in test [1] (CCR6, dose range 1) was 6.5 µM; in test [1] (setting [5]), 6.87 µM; in test [1] (CCR6, run 2, dose range 1) it was 7.24 µM; in test [2] (dose range 1), 10.9 µM; in test [2] (setting [6]), 10.9 µM; in test [2] (run 2, dose range 1), 11.2 µM. For the same compound, the IC50 is 10.6 µM in test [2] (run 3, dose range 1); 12.7 µM in test [3] (CXCR6, dose range 1); 10.3 µM in test [3] (setting [7]); 10.1 µM in test [3] (CXCR6, run 1, dose range 2); 9.67 µM in test [3] (CXCR6, run 2, dose range 1); 8.85 µM in test [3] (CXCR6, run 2, dose range 2). Also, the IC50 in test [4] (dose range 1) was > 80 µM (inactive); in test [4] (setting [6]), above 80 µM.

For the compound `COC(=O)[C@@H]1[C@@H](C#N)C2(c3ccccc3-c3ccccc32)N(c2ccc(Cl)cc2)N1C#N`, the IC50 in test [1] (setting [5]) was above 80 µM; in test [1] (CCR6, run 2, dose range 1), above 80 µM; in test [2] (setting [6]) it was above 80 µM; in test [2] (run 2, dose range 1), above 80 µM; in test [2] (run 3, dose range 1), above 80 µM; in test [3] (CXCR6, dose range 1), > 80 µM (inactive). For the same compound, the IC50 in test [3] (setting [7]) was above 80 µM; in test [3] (CXCR6, run 2, dose range 1), above 80 µM; in test [4] (dose range 1), > 80 µM (inactive); in test [4] (setting [6]) it was above 80 µM. Besides, the inhibition in test [3] stood at 11.1%.

`Cc1cccnc1Nc1nc(-c2ccccn2)cs1`: the IC50 in test [1] (CCR6, dose range 1) was 0.955 µM; in test [1] (setting [5]) it was 1.22 µM; in test [1] (CCR6, run 2, dose range 1), 1.48 µM; in test [2] (dose range 1), 1.2 µM; in test [2] (setting [6]), 1.38 µM; in test [2] (run 2, dose range 1) it was 1.82 µM. Moreover, the IC50 in test [2] (run 3, dose range 1) was 1.13 µM; in test [3] (CXCR6, dose range 1) it was 1.13 µM; in test [3] (setting [7]), 0.904 µM; in test [3] (CXCR6, run 1, dose range 2), 0.837 µM; in test [3] (CXCR6, run 2, dose range 1), 0.861 µM; in test [3] (CXCR6, run 2, dose range 2), 0.788 µM. Further, the IC50 was > 80 µM (inactive) in test [4] (dose range 1) and above 80 µM in test [4] (setting [6]).

With `CCCCCCCCn1sccc1=O`, the IC50 in test [1] (CCR6, dose range 1) is 6.52 µM; in test [1] (setting [5]), 6.83 µM; in test [1] (CCR6, run 2, dose range 1) it was 7.14 µM; in test [2] (dose range 1), 9.73 µM; in test [2] (setting [6]), 8.1 µM; in test [2] (run 2, dose range 1) it was 7.99 µM. For the same compound, the IC50 is 6.58 µM in test [2] (run 3, dose range 1); 6.96 µM in test [3] (CXCR6, dose range 1); 8.16 µM in test [3] (setting [7]); 6.75 µM in test [3] (CXCR6, run 1, dose range 2); 8.67 µM in test [3] (CXCR6, run 2, dose range 1); 10.2 µM in test [3] (CXCR6, run 2, dose range 2). In addition, the IC50 in test [4] (dose range 1) is > 80 µM (inactive); in test [4] (setting [6]), above 80 µM.

Turning to `Cc1c(Nc2cc(Cl)c3nonc3c2[N+](=O)[O-])c(=O)n(-c2ccccc2)n1C`, the IC50 was 3.16 µM in test [1] (CCR6, dose range 1); 3.35 µM in test [1] (setting [5]); 3.55 µM in test [1] (CCR6, run 2, dose range 1); 4.55 µM in test [2] (dose range 1); 4.26 µM in test [2] (setting [6]); 4.09 µM in test [2] (run 2, dose range 1). In addition, the IC50 was 4.16 µM in test [2] (run 3, dose range 1); 3.95 µM in test [3] (CXCR6, dose range 1); 3.92 µM in test [3] (setting [7]); 3.59 µM in test [3] (CXCR6, run 1, dose range 2); 4.6 µM in test [3] (CXCR6, run 2, dose range 1); 3.57 µM in test [3] (CXCR6, run 2, dose range 2). The values for the IC50 in test [4] (dose range 1) and in test [4] (setting [6]) were > 80 µM (inactive) and above 80 µM, respectively.
